Source: PMC6424996, “Effect of peptide-conjugated nanoparticles on cell lines” (Progress in Biomaterials, 2019)
Several values for one entry are separate records, joined by “and”; a condition that tells them apart may be missing. Equal entries are not always repeated. Where a SMILES comes first, the peptide text is derived from it.

Legend:
Format in all cases: cell-based
[1] = tested on: HT-29 (Colon carcinoma) cells; experiment: Screening of cytotoxic activity of peptides by MTT assay on HT-29 cells; conditions: for % inhibition (peptide screening): HT-29 cancerous cells, MTT, Fig. 1
Procedure: Different concentrations of the peptides (1 μL, 3 μL, 5 L, 10 μL, 20 μL) were used to treat the cancerous and normal cells consecutively (Inkielewicz-Stepniak et al. [2014]). The percentage inhibition was calculated.

[2] = tested on: HT-29 cells; experiment: PI/AO staining for dead/live cells, HT-29; conditions: HT-29, 1 µg/mL, 24 h, Figs. 6, 8
Procedure: (§1) HT-29 and MDA MB-231 cells were plated at a density of 1 × 10^6 cells/mL in 6-well tissue culture plates. They were treated with 1 µg/mL each of AgNP, AuNP, P1, P1–AgNP and P1–AuNP conjugated samples and were incubated in at 37 °C in 5% CO2 for 24 h. The cells were then harvested and washed twice using PBS after centrifugation at 2000 rpm for 5 min. An equal volume (10 µg/mL) of fluorescent dyes, propidium iodide (PI)/acridine orange (AO) was added to the cellular pellet. These freshly stained cells were observed under an inverted fluorescent microscope within 30 min (Banerjee and Ravishankar [2017]).
(§2) The nucleic acid-binding dyes propidium iodide (PI) and acridine orange (AO) help us to detect the dead cells and live cells under the microscope. AO permeates both dead and live cells; thus, it stains all nucleated cells to generate green fluorescence, whereas PI identifies the dead cells only and fluoresce red. The treated cancer cells were both stained with PI and AO equally, and were observed under fluorescence microscope. The results are obtained on swapping of the images to have an apparent understanding of the drug effects (Hajrezaie et al [2015]; Hajiaghaalipour et al [2015]).

[3] = tested on: MDA MB-231 cells; experiment: PI/AO staining for dead/live cells, MDA MB-231; conditions: MDA MB-231, 1 µg/mL, 24 h, Figs. 7, 9
Procedure: as §1, §2

[4] = tested on: MDA MB-231 (Breast cancer) cells; experiment: MTT assay of nanoparticles, P1 and conjugates on MDA MB-231; conditions: for % inhibition: MTT, 24 h exposure, 5000 cells/well, 570 nm, triplicates
Procedure: (§3) Cell lines were acquired from NCCS—National Centre for Cell Science, Pune, India. The HT-29 (Colon carcinoma) and MDA MB-231 (Breast cancer) cells were plated into 25-mm^2 T-flasks after thawing them at 37 °C in a water bath for few minutes. The thawed cells were transferred in a centrifuge tube and centrifuged for 3 min at 2000 rpm/min. The cells were, thus, collected discarding the supernatant and mixed well in Dulbecco’s modified Eagle’s medium (DMEM) solution with 12% fetal bovine serum, and antibiotics (streptopenicillin and amphotericin B solution, Sigma). Later, they were plated in 25 mm^2 in the same DMEM solution, individually. The T-flasks containing the cells were incubated for 24 h in humidified environment with 5% CO2. These cells after 24 h were washed with phosphate buffer saline (PBS). The medium was regularly changed for the cells to reach 50% confluence (Hajiaghaalipour et al [2015]). To check the viability of cells, MTT assay was carried out and 96-well plates were used to seed the cell lines of interest at 5000 cells/well and incubated overnight at 37 °C in an incubator with 5% CO2. After incubation, the cells were treated with different concentrations (1, 5, 10 μg/mL) of P1, AgNPs, AuNPs, P1–AgNP and P1–AuNP conjugates. The plates along with the treated cells were again incubated for 24 h at the same condition. The stored stock of MTT solution was added to the control and treated cell line samples, and again incubated at 37 °C for 2–3 h. After incubation, the media were carefully removed from the wells and mixed with solubilizing buffer. A purple color solution was visible at this stage. The control solution (without incorporation of nanoparticles/pure incubated cells) and treated samples were again incubated for an hour at 37 °C to ensure that the formazan precipitate was dissolved. The measurement of MTT assay was analyzed with Elisa Reader (Thermo Scientific, Multiskan Spectrum) at 570 nm (Inkielewicz-Stepniak et al [2014]). Percentage inhibition of cells was calculated according to the following equation: Cytotoxicity(%)=(experimentalabsorbance570nmofexposedcells/absorbance570nmofunexposedcells)×100.
(§4) All experiments were done in triplicates and the results were represented as mean ± SEM. The experimental data were read by two-way analysis of variance (ANNOVA). Differences were considered significant at p < 0.05. The IC-50 value was calculated using Microsoft Excel 2007 software (logarithmic transformation of X values and nonlinear regression sigmoidal dose–response analysis with variable slope—with bottom and top constraints set at 0 and 100, resp.).

[5] = tested on: NIH3T3 (Mouse embryo fibroblast) cells; experiment: Cytotoxicity on normal NIH3T3 cells (MTT assay)
Procedure: Above-mentioned peptides (P1, P2, P3, P4, and P5) obtained from other sources were screened for cytotoxicity by MTT assay on NIH3T3 (Mouse embryo fibroblast) cells (normal) and HT-29 (Colon carcinoma) cells (cancerous) by MTT assay. Different concentrations of the peptides (1 μL, 3 μL, […], 10 μL, 20 μL) were used to treat the cancerous and normal cells consecutively (Inkielewicz-Stepniak et al. [2014]). The percentage inhibition was calculated.

[6] = tested on: HT-29 (Colon carcinoma) cells; experiment: MTT assay of nanoparticles, P1 and conjugates on HT-29; conditions: 24 h exposure, 5000 cells/well, 570 nm, triplicates
Procedure: as §3, with “The stored stock of MTT solution was added to the control and treated cell line samples, and again incubated at 37 °C for 2–3 h. After incubation, the media were carefully removed from the wells and mixed with solubilizing buffer. A purple color solution was visible at this stage. The control solution (without incorporation of nanoparticles/pure incubated cells) and treated samples were again incubated for an hour at 37 °C to ensure that the formazan precipitate was dissolved.” left out
as §4, with “Differences were considered significant at p < 0.05.” left out

## Boc-P-A-OH [Peptide P3]
[1]; lowest concentration 1 µg/mL
  % inhibition (peptide screening): 9.12%

## Boc-βGly-βGly-OMe [Peptide P5]
[1]; 5 µg/mL
  % inhibition (peptide screening): around 20%

## Boc-P-U-OH [Peptide P4]
[1]; 5 µg/mL
  % inhibition (peptide screening): around 20%

## (U^BF)4-OMe [Peptide P2]
[1]; lowest concentration 1 µg/mL
  % inhibition (peptide screening): 15.93%

## COC(=O)[C@H](CC(C)C)NC(=O)[C@H]1CCCN1C(=O)[C@H](CC(C)C)NC(=O)OC(C)(C)C [Peptide P1, Boc-L-^DP-L-OMe] (HELM PEPTIDE1{[CC(C)(C)OC(=O)[*:2]].L.[dP].L.[CO[*:1]]}$$$$V2.0)
[1]; HT-29, MTT, Fig. 1 legend
  IC50 rank among the five peptides: best IC50 value
[1]; lowest concentration 1 µg/mL
  % inhibition (peptide screening): 23.22%
[2]
  PI/AO fluorescent staining, observed state of the cells: a number of apoptotic cells as well and very few dead cells
[3]
  PI/AO fluorescent staining, observed state of the cells: a number of apoptotic cells as well and very few dead cells
[4]; MDA MB 231, 1 µg/mL
  % inhibition: 29.98%
[4]; MDA MB 231, 5 µg/mL
  % inhibition: 37.11%
[4]; MDA MB 231, 10 µg/mL
  % inhibition: 60.69%
[4]; MDA MB-231, MTT, Fig. 5b/5d, concentration not given
  inhibition of up to (concentration not given): around 29%
[5]
  change of NIH3T3 cells due to treatment: do not show much change
[6]; HT 29, 1 µg/mL
  % inhibition: ~ 19% and 19.69%
[6]; HT 29, 5 µg/mL
  % inhibition: 22.05%
[6]; HT 29, 10 µg/mL
  % inhibition: 27.72%
